In the supplement of paper PMC8671470:

Tested on: KCL-22
Assay: cell viability (% survival relative to DMSO control, bortezomib = 0%); higher = less cytotoxic
Conditions: 10000 nM; 72 h
Outline: (§1)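 Percent survival is reported as the mean of duplicate wells. Cells from 10 AML and 5 CML lines were plated in 384-well plates containing compounds at 1, 10, 100, 1000 or 10000 nM and kept for 72 h at 37 °C in 5% CO2. Readout used CellTiter-Glo luminescence, scaled so that vehicle equals 100% and a 10 µM positive control equals 0%.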

SMILES | cell viability
CC[C@H](C)[C@H](N)C(=O)N1CCSC1 [P32/98] | 100%
CC(=O)Nc1nc(C)c(-c2ccc(Cl)c(S(=O)(=O)NCCO)c2)s1 [PIK93] | 20.7%
OC[C@H]1O[C@@H](n2cnc3c2N=CNC[C@H]3O)C[C@@H]1O [Pentostatin] | 105%
CC(C)CC(=O)N[C@H](C(=O)N[C@H](C(=O)N[C@@H](CC(C)C)[C@@H](O)CC(=O)N[C@@H](C)C(=O)N[C@@H](CC(C)C)[C@@H](O)CC(=O)O)C(C)C)C(C)C [Pepstatin A] | 98.7%
Cc1cccc(Nc2cc(Cl)nc(SCC(=O)O)n2)c1C [Pirinixic acid] | 101%
C[C@]12C=CC(=O)C=C1CC[C@@H]1[C@@H]2[C@@H](O)C[C@@]2(C)[C@H]1CC[C@]2(O)C(=O)CO [Prednisolone] | 43%
C=CCN(C)CCCCCCOc1ccc(C(=O)c2ccc(Br)cc2)c(F)c1.O=C(O)/C=C/C(=O)O [Ro 48-8071 fumarate] | 77.5%

Tested on: KG-1
Assay: as above
Conditions: 1 nM; 72 h
Outline: as §1

SMILES | cell viability
CN(Cc1cnc2nc(N)nc(N)c2n1)c1ccc(C(=O)N[C@@H](CCC(=O)O)C(=O)O)cc1 [Methotrexate] | 104%
COC(=O)c1cc2c(C(F)(F)F)cc(-c3ccccc3)cc2n1O [NHI-2] | 97.6%
CCCCCCCC/C=C\CCCCCCCC(=O)Nc1ccccc1 [Octadec-9-Enoic Acid Phenylamide] | 107%
CC[C@H](C)[C@H](N)C(=O)N1CCSC1 [P32/98] | 97.9%
CC(=O)Nc1nc(C)c(-c2ccc(Cl)c(S(=O)(=O)NCCO)c2)s1 [PIK93] | 93.9%
OC[C@H]1O[C@@H](n2cnc3c2N=CNC[C@H]3O)C[C@@H]1O [Pentostatin] | 101%
CC(C)CC(=O)N[C@H](C(=O)N[C@H](C(=O)N[C@@H](CC(C)C)[C@@H](O)CC(=O)N[C@@H](C)C(=O)N[C@@H](CC(C)C)[C@@H](O)CC(=O)O)C(C)C)C(C)C [Pepstatin A] | 99.1%
Cc1cccc(Nc2cc(Cl)nc(SCC(=O)O)n2)c1C [Pirinixic acid] | 99%
C[C@]12C=CC(=O)C=C1CC[C@@H]1[C@@H]2[C@@H](O)C[C@@]2(C)[C@H]1CC[C@]2(O)C(=O)CO [Prednisolone] | 115%
C=CCN(C)CCCCCCOc1ccc(C(=O)c2ccc(Br)cc2)c(F)c1.O=C(O)/C=C/C(=O)O [Ro 48-8071 fumarate] | 110%

Same assay, conditions: 10 nM; 72 h

SMILES | cell viability
CN(Cc1cnc2nc(N)nc(N)c2n1)c1ccc(C(=O)N[C@@H](CCC(=O)O)C(=O)O)cc1 [Methotrexate] | 93.8%
COC(=O)c1cc2c(C(F)(F)F)cc(-c3ccccc3)cc2n1O [NHI-2] | 90.8%
CCCCCCCC/C=C\CCCCCCCC(=O)Nc1ccccc1 [Octadec-9-Enoic Acid Phenylamide] | 96.9%
CC[C@H](C)[C@H](N)C(=O)N1CCSC1 [P32/98] | 110%
CC(=O)Nc1nc(C)c(-c2ccc(Cl)c(S(=O)(=O)NCCO)c2)s1 [PIK93] | 106%
OC[C@H]1O[C@@H](n2cnc3c2N=CNC[C@H]3O)C[C@@H]1O [Pentostatin] | 104%
CC(C)CC(=O)N[C@H](C(=O)N[C@H](C(=O)N[C@@H](CC(C)C)[C@@H](O)CC(=O)N[C@@H](C)C(=O)N[C@@H](CC(C)C)[C@@H](O)CC(=O)O)C(C)C)C(C)C [Pepstatin A] | 77.5%
Cc1cccc(Nc2cc(Cl)nc(SCC(=O)O)n2)c1C [Pirinixic acid] | 93.1%
C[C@]12C=CC(=O)C=C1CC[C@@H]1[C@@H]2[C@@H](O)C[C@@]2(C)[C@H]1CC[C@]2(O)C(=O)CO [Prednisolone] | 105%
C=CCN(C)CCCCCCOc1ccc(C(=O)c2ccc(Br)cc2)c(F)c1.O=C(O)/C=C/C(=O)O [Ro 48-8071 fumarate] | 101%

Same assay, conditions: 100 nM; 72 h

SMILES | cell viability
CN(Cc1cnc2nc(N)nc(N)c2n1)c1ccc(C(=O)N[C@@H](CCC(=O)O)C(=O)O)cc1 [Methotrexate] | 98.9%
COC(=O)c1cc2c(C(F)(F)F)cc(-c3ccccc3)cc2n1O [NHI-2] | 100%
CCCCCCCC/C=C\CCCCCCCC(=O)Nc1ccccc1 [Octadec-9-Enoic Acid Phenylamide] | 99.9%
CC[C@H](C)[C@H](N)C(=O)N1CCSC1 [P32/98] | 108%
CC(=O)Nc1nc(C)c(-c2ccc(Cl)c(S(=O)(=O)NCCO)c2)s1 [PIK93] | 100%
OC[C@H]1O[C@@H](n2cnc3c2N=CNC[C@H]3O)C[C@@H]1O [Pentostatin] | 97.9%
CC(C)CC(=O)N[C@H](C(=O)N[C@H](C(=O)N[C@@H](CC(C)C)[C@@H](O)CC(=O)N[C@@H](C)C(=O)N[C@@H](CC(C)C)[C@@H](O)CC(=O)O)C(C)C)C(C)C [Pepstatin A] | 96.8%
Cc1cccc(Nc2cc(Cl)nc(SCC(=O)O)n2)c1C [Pirinixic acid] | 101%
C[C@]12C=CC(=O)C=C1CC[C@@H]1[C@@H]2[C@@H](O)C[C@@]2(C)[C@H]1CC[C@]2(O)C(=O)CO [Prednisolone] | 87.7%
C=CCN(C)CCCCCCOc1ccc(C(=O)c2ccc(Br)cc2)c(F)c1.O=C(O)/C=C/C(=O)O [Ro 48-8071 fumarate] | 78.5%

Same assay, conditions: 1000 nM; 72 h

SMILES | cell viability
CN(Cc1cnc2nc(N)nc(N)c2n1)c1ccc(C(=O)N[C@@H](CCC(=O)O)C(=O)O)cc1 [Methotrexate] | 94.3%
COC(=O)c1cc2c(C(F)(F)F)cc(-c3ccccc3)cc2n1O [NHI-2] | 85.9%
CCCCCCCC/C=C\CCCCCCCC(=O)Nc1ccccc1 [Octadec-9-Enoic Acid Phenylamide] | 99.2%
CC[C@H](C)[C@H](N)C(=O)N1CCSC1 [P32/98] | 112%
CC(=O)Nc1nc(C)c(-c2ccc(Cl)c(S(=O)(=O)NCCO)c2)s1 [PIK93] | 80.8%
OC[C@H]1O[C@@H](n2cnc3c2N=CNC[C@H]3O)C[C@@H]1O [Pentostatin] | 108%
CC(C)CC(=O)N[C@H](C(=O)N[C@H](C(=O)N[C@@H](CC(C)C)[C@@H](O)CC(=O)N[C@@H](C)C(=O)N[C@@H](CC(C)C)[C@@H](O)CC(=O)O)C(C)C)C(C)C [Pepstatin A] | 90.7%
Cc1cccc(Nc2cc(Cl)nc(SCC(=O)O)n2)c1C [Pirinixic acid] | 98.8%
C[C@]12C=CC(=O)C=C1CC[C@@H]1[C@@H]2[C@@H](O)C[C@@]2(C)[C@H]1CC[C@]2(O)C(=O)CO [Prednisolone] | 91.3%
C=CCN(C)CCCCCCOc1ccc(C(=O)c2ccc(Br)cc2)c(F)c1.O=C(O)/C=C/C(=O)O [Ro 48-8071 fumarate] | 80.7%

Same assay, conditions: 10000 nM; 72 h

SMILES | cell viability
CN(Cc1cnc2nc(N)nc(N)c2n1)c1ccc(C(=O)N[C@@H](CCC(=O)O)C(=O)O)cc1 [Methotrexate] | 92.9%
COC(=O)c1cc2c(C(F)(F)F)cc(-c3ccccc3)cc2n1O [NHI-2] | 97.7%
CCCCCCCC/C=C\CCCCCCCC(=O)Nc1ccccc1 [Octadec-9-Enoic Acid Phenylamide] | 97.4%
CC[C@H](C)[C@H](N)C(=O)N1CCSC1 [P32/98] | 137%
CC(=O)Nc1nc(C)c(-c2ccc(Cl)c(S(=O)(=O)NCCO)c2)s1 [PIK93] | 32.6%
OC[C@H]1O[C@@H](n2cnc3c2N=CNC[C@H]3O)C[C@@H]1O [Pentostatin] | 97.8%
CC(C)CC(=O)N[C@H](C(=O)N[C@H](C(=O)N[C@@H](CC(C)C)[C@@H](O)CC(=O)N[C@@H](C)C(=O)N[C@@H](CC(C)C)[C@@H](O)CC(=O)O)C(C)C)C(C)C [Pepstatin A] | 93.9%
Cc1cccc(Nc2cc(Cl)nc(SCC(=O)O)n2)c1C [Pirinixic acid] | 107%
C[C@]12C=CC(=O)C=C1CC[C@@H]1[C@@H]2[C@@H](O)C[C@@]2(C)[C@H]1CC[C@]2(O)C(=O)CO [Prednisolone] | 71.4%
C=CCN(C)CCCCCCOc1ccc(C(=O)c2ccc(Br)cc2)c(F)c1.O=C(O)/C=C/C(=O)O [Ro 48-8071 fumarate] | 52.3%

Tested on: KU-812
Assay: as above
Conditions: 1 nM; 72 h
Outline: as §1

SMILES | cell viability
CN(Cc1cnc2nc(N)nc(N)c2n1)c1ccc(C(=O)N[C@@H](CCC(=O)O)C(=O)O)cc1 [Methotrexate] | 99%
COC(=O)c1cc2c(C(F)(F)F)cc(-c3ccccc3)cc2n1O [NHI-2] | 97.6%
